Reference: patent US20230192622A1, “ANTI-SARS-COV-2 DRUG” (ONCOLYS BIOPHARMA, INC., priority 2020, published 2023)
pEC50, pIC50: −log10 of the molar value. Read-outs that look alike come from different tables or passages of the source.

How the values were obtained:
in vitro [1] = details: African green monkey
SARS-CoV-2 (WK-521) [2] = assay: Anti-SARS-CoV-2 effect, assay with VeroE6/TMPRSS2 cells (inhibition of virus-induced cell death, Cell Counting Kit-8); assay type: cell-based; details: for pEC50: VeroE6/TMPRSS2 cells, MOI=0.01, 3 days of culture, read-out: EC50: 50% effective concentration (concentration of agent which inhibits cell death induced by SARS-CoV-2 infection by 50%)
SARS-CoV-2 (WK-521) [3] = assay: microbe, parasite or virus in culture; assay type: cell-based; details: Severe acute respiratory syndrome coronavirus 2, HEK-293T, 72 h, HEK293T/ACE2 cells, MOI=0.1, 3 days, qPCR of viral RNA in supernatant; for IC90: read-out: IC50(μM) (footnote defines IC90: 90% inhibitory concentration); for pIC50: read-out: IC50: 50% inhibitory concentration (reduces viral production and replication by 50%)
in vitro [4] = details: human
VeroE6/TMPRSS2 cells [5] = details: African green monkey, 3 days
VeroE6/TMPRSS2 cells [6] = assay: Cytotoxicity in uninfected VeroE6/TMPRSS2 cells (viable cell number, Cell Counting Kit-8); details: read-out: CC50: 50% cytotoxic concentration (concentration of agent which reduces the number of viable cells by 50%), 3 days of culture

Compound	CC50 at 3 days (in vitro [1]) [µM]	pEC50 (SARS-CoV-2 (WK-521) [2])	IC90 (SARS-CoV-2 (WK-521) [3]) [µM]	pIC50 (SARS-CoV-2 (WK-521) [3])	CC50 at 3 days (in vitro [4]) [µM]	other results
CCCCn1c(=O)c2cc3c(cc2c2cc(C(O)(C(F)(F)F)C(F)(F)F)ccc21)OCO3 [KZ26, 5-butyl-2-(1′,1′,1′,3′,3′,3′-hexafluoro-2′-hydroxypropan-2′-yl)-[1,3] dioxolo[4,5-j] phenanthridin-6(5H)-one]	> 10	5.54				
CCCCn1c(=O)c2ccc(OC(CO)CO)cc2c2cc(C(O)(C(F)(F)F)C(F)(F)F)ccc21 [NR-46]			3.76	6.36	> 20	
CCCCn1c(=O)c2ccc(OCC(=O)NC)cc2c2cc(C(O)(C(F)(F)F)C(F)(F)F)ccc21 [NR-97]			3.27	6.62	> 20	
CCCCn1c(=O)c2cccc(OC)c2c2cc(C(O)(C(F)(F)F)C(F)(F)F)ccc21 [KZ33, 5-butyl-2-(1′,1′,1′,3′,3′,3′-hexafluoro-2′-hydroxypropan-2′-yl)-10-methoxy-phenanthridin-6(5H)-one]	> 10	5.39				
CCCCn1c(=O)c2ccccc2c2cc(C(O)(C(F)(F)F)C(F)(F)F)c3c(c21)OCO3 [HA-718, 4-butyl-11-(1′,1′,1′,3′,3′,3′-hexafluoro-2′-hydroxypropan-2′-yl)-[1,3]dioxolo [4,5-c]phenanthridin-5(4H)-one]	> 10	5.51				
CCCCn1c(=O)c2cc(OC)ccc2c2cc(C(O)(C(F)(F)F)C(F)(F)F)c3c(c21)OCO3 [HA-719, 4-butyl-11-(1′,1′,1′,3′,3′,3′-hexafluoro-2′-hydroxypropan-2′-yl)-7-methoxy-[1,3]dioxolo[4,5-c]phenanthridin-5(4H)-one]	> 10	5.59				cell death due to SARS-CoV-2 infection observed under a microscope (FIG. 2) (SARS-CoV-2 (WK-521) [2]; 5 μM of HA-719, VeroE6/TMPRSS2 cells): almost no cell death was observed
CCCCn1c(=O)c2cc(OCCO)ccc2c2cc(C(O)(C(F)(F)F)C(F)(F)F)cc(OC)c21 [NR-26]			14.8	5.91	> 20	
CCCCn1c(=O)c2cc(NC(=O)C3CC3)ccc2c2cc(C(O)(C(F)(F)F)C(F)(F)F)ccc21 [NR-51]			1.8	6.52	8.4	
CCCCn1c(=O)c2ccccc2c2cc(C(O)(C(F)(F)F)C(F)(F)F)ccc21 [HA-579]	> 10	5.06				
CCCCn1c(=O)c2ccc(C)cc2c2cc(C(O)(C(F)(F)F)C(F)(F)F)ccc21 [YN033]		5.22				CC50 (VeroE6/TMPRSS2 cells [5]): > 10 µM
CCCCn1c(=O)c2cc3c(cc2c2cc(C(O)(C(F)(F)F)C(F)(F)F)c4c(c21)OCO4)OCO3 [HA-754]	> 10	5.30				
CCCCn1c(=O)c2ccc(O)cc2c2cc(C(O)(C(F)(F)F)C(F)(F)F)ccc21 [YN029, 5-butyl-2-(1′,1′,1′,3′,3′,3′-hexafluoro-2′-hydroxypropan-2′-yl) hydroxyphenanthridin-6(5H)-one]	> 10	5.72	3.04	6.23	16.9	
CCCCn1c(=O)c2ccccc2c2cc(C(O)(C(F)(F)F)C(F)(F)F)cc(OC)c21 [KZ08]	> 10	5.54				
CCCCn1c(=O)c2cc(F)c(OCCN(C)C)cc2c2cc(C(O)(C(F)(F)F)C(F)(F)F)ccc21 [NR-60]			> 10	6.02	6.73	
CCCCn1c(=O)c2cc(F)c(OCC(O)CO)cc2c2cc(C(O)(C(F)(F)F)C(F)(F)F)ccc21 (centres unmarked) [NR-82]			8.57	6.02	14.5	
CCCCn1c(=O)c2cc(O)c(OC3(C)CNC3)cc2c2cc(C(O)(C(F)(F)F)C(F)(F)F)ccc21 [NR-58]			4.69	5.98	10.6	
CCCCn1c(=O)c2c(OC)cccc2c2cc(C(O)(C(F)(F)F)C(F)(F)F)ccc21 [KZ31, 5-butyl-2-(1′,1′,1′,3′,3′,3′-hexafluoro-2′-hydroxypropan-2′-yl)-7-methoxy-phenanthridin-6(5H)-one]	> 10	5.48				
CCCCn1c(=O)c2cc(C)ccc2c2cc(C(O)(C(F)(F)F)C(F)(F)F)ccc21 [KZ24]		5.39				CC50 (VeroE6/TMPRSS2 cells [5]): > 10 µM

Compound	CC50 at 3 days (in vitro [1]) [µM]	pEC50 (SARS-CoV-2 (WK-521) [2])	IC90 (SARS-CoV-2 (WK-521) [3]) [µM]	pIC50 (SARS-CoV-2 (WK-521) [3])	CC50 at 3 days (in vitro [4]) [µM]	other results
5-butyl-2-(1′,1′,1′,3′,3′,3′-hexafluoro-2′-hydroxypropan-2′-yl)-7,8,9-trimethoxy-phenanthridin-6(5H)-one [KZ39]		5.07				CC50 (VeroE6/TMPRSS2 cells [6]): > 10 µM
CCCCn1c(=O)c2ccc(OCCO)cc2c2cc(C(O)(C(F)(F)F)C(F)(F)F)ccc21 [NR-04, 5-butyl-2-(1,1,1,3,3,3-hexafluoro-2-hydroxypropan-2-yl)-9-(2-hydroxyethoxy)-phenanthridin-6(5H)-one]			3.72	6.31	> 20	
CCCCn1c(=O)c2cc(F)c(OCCO)cc2c2cc(C(O)(C(F)(F)F)C(F)(F)F)ccc21 [NR-61]			4.99	5.96	19	
CC(C)Cn1c(=O)c2ccccc2c2cc(C(O)(C(F)(F)F)C(F)(F)F)ccc21 [KZ01]	> 10	5.27				
CCCCn1c(=O)c2cc(F)c(OC3COC3)cc2c2cc(C(O)(C(F)(F)F)C(F)(F)F)ccc21 [NR-80]			6.16	6.23	19.1	
CCCCn1c(=O)c2cc(OC3CCOC3)c(OC3CCOC3)cc2c2cc(C(O)(C(F)(F)F)C(F)(F)F)ccc21 (centres unmarked) [NR-67]			> 10	5.88	19	
CCCCn1c(=O)c2cc3c(cc2c2cc(C(O)(C(F)(F)F)C(F)(F)F)ccc21)OC1COCC1O3 (centres unmarked) [NR-84]			5.83	5.76	> 20	
CCCCn1c(=O)c2cc(F)c(O[C@@H]3COC[C@@H]3O)cc2c2cc(C(O)(C(F)(F)F)C(F)(F)F)ccc21 [NR-65]			6.76	6.70	18.2	
CCCCn1c(=O)c2cc(O)ccc2c2cc(C(O)(C(F)(F)F)C(F)(F)F)cc(OC)c21 [NR-19]			4.44	6.21	> 20	
CCCCn1c(=O)c2cc(F)c(OC3CCOC3)cc2c2cc(C(O)(C(F)(F)F)C(F)(F)F)ccc21 (centres unmarked) [NR-66]			5.66	6.10	13.9	
CCCCn1c(=O)c2ccccc2c2cc(C(O)(C(F)(F)F)C(F)(F)F)cc(C)c21 [KZ07]		5.48				CC50 (VeroE6/TMPRSS2 cells [5]): > 10 µM
CCCCn1c(=O)c2cc(OC)ccc2c2cc(C(O)(C(F)(F)F)C(F)(F)F)ccc21 [KZ12]	> 10	5.06				
CCCCn1c(=O)c2ccc(OC)cc2c2cc(C(O)(C(F)(F)F)C(F)(F)F)ccc21 [KZ32, 5-butyl-2-(1′,1′,1′,3′,3′,3′-hexafluoro-2′-hydroxypropan-2′-yl)-9-methoxy-phenanthridin-6(5H)-one]	> 10	5.74	7.37	5.99	> 20	
CCCCn1c(=O)c2cc(OC)ccc2c2cc(C(O)(C(F)(F)F)C(F)(F)F)c(OC)c(OC)c21 [HA-727, 5-butyl-2-(1′,1′,1′,3′,3′,3′-hexafluoro-2′-hydroxypropan-2′-yl)-3,4,8-trimethoxy-phenanthridin-6(5H)-one]	> 10	5.32				
CCCCn1c(=O)c2cc(F)c(OCCNC(C)=O)cc2c2cc(C(O)(C(F)(F)F)C(F)(F)F)ccc21 [NR-62]			7.82	5.89	13	
CCCCn1c(=O)c2cc(F)c(OCC(N)=O)cc2c2cc(C(O)(C(F)(F)F)C(F)(F)F)ccc21 [NR-63]			2.48	6.68	> 20	
CCCCn1c(=O)c2ccc(OCC(C)(C)O)cc2c2cc(C(O)(C(F)(F)F)C(F)(F)F)ccc21 [NR-32, 5-butyl-2-(1,1,1,3,3,3-hexafluoro-2-hydroxypropan-2-yl)-9-(2-hydroxy-2-methylpropyloxy)phenanthridin-6(5H)-one]			2.34	6.57	> 20	
